Patent US9469615B2, “Quinoxalines and AZA-quinoxalines as CRTH2 receptor modulators” (Merck Sharp & Dohme Corp., priority 2010, dated 2016)

molecular target: T1, hCRTH2 (Homo sapiens, UniProt Q9Y5Y4); experiment: Radioligand binding assay ([3H]PGD2 competition, HEK-hCRTH2 membranes); conditions: [3H]PGD2 binding, rated A-E (Table A)
T1 construct: expressed in transfected cells; host or cells: HEK (human embryonic kidney) cells expressing hCRTH2; membrane preparation
T1 sequence (Q9Y5Y4 1-395): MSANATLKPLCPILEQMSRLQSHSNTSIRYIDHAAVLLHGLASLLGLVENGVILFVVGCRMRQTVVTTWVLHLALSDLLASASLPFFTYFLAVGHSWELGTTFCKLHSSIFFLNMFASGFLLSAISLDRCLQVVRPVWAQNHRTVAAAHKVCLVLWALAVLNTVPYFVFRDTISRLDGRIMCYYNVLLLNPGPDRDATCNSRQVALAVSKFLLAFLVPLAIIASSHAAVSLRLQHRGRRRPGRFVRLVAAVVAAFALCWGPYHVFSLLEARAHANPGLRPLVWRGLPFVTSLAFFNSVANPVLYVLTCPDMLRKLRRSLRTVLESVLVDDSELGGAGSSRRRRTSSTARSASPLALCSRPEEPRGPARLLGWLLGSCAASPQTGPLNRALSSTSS
Procedure, shortened: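 Using membranes of an HEK line stably carrying hCRTH2, ligands were tested against [3H]PGD2 (3.0 nM) in pH 7.4 Tris buffer containing 2 mM MnCl2 and 1 mM EDTA. After one hour at room temperature, filters were washed cold and counted.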

Row | Ki [nM] | SMILES
1 | 701 to 2300 | C[C@@H](NC(=O)c1ccc2nc(-c3ccccc3)c(CCCC(=O)O)nc2c1)c1ccc(F)cc1 [compound 36, (R)-4-(7-((1-(4-fluorophenyl)ethyl)carbamoyl)-3-phenylquinoxalin-2-yl)butanoic acid]
2 | 2.1 to 20 | C[C@H](c1ccc(F)cc1)N(C)C(=O)c1ccc2nc(-c3ccc(F)cc3)c(CCCCC(=O)O)nc2c1 [compound 240, 3-(4-fluorophenyl)-7-[[[1(R)-(4-fluorophenyl)ethyl]methylamino]carbonyl]-2-quinoxalinepentanoic acid]
3 | 2.1 to 20 | Cc1ccc([C@@H](C)NC(=O)c2ccc3nc(-c4ccccc4)c(CCCCC(=O)O)nc3c2)cc1 [15AY, 5-(7-{[(1R)-1-(4-methylphenyl)ethyl]carbamoyl}-3-phenyl-quinoxalin-2-yl)pentanoic acid]
4 | 2.1 to 20 | O=C(O)CCCCc1nc2cc(C(=O)NCc3cccnc3)ccc2nc1-c1ccccc1 [15AG, 5-{3-phenyl-7-[(pyridin-3-ylmethyl)carbamoyl]quinoxalin-2-yl} pentanoic acid]
5 | 2.1 to 20 | O=C(O)CCCCc1nc2cc(C(=O)N3CC[C@H](c4ccccc4)C3)ccc2nc1-c1ccccc1 [compound 141, 3-phenyl-7-[(3(R)-phenyl-1-pyyrolidinyl)carbonyl]-2-quinoxalinepentanoic acid]
6 | 20.1 to 200 | O=C(N[C@@H]1CCCc2ccccc21)c1ccc2nc(-c3ccccc3)c(CCCC(F)C(=O)O)nc2c1 (mixture of isomers) [compound 38, 2-fluoro-5-(3-phenyl-7-(((R)-1,2,3,4-tetrahydronaphthalen-1-yl)carbamoyl)quinoxalin-2-yl)pentanoic acid]
7 | 0.1 to 2 | O=C(O)CCCCc1nc2cc(C(=O)N3CCC(c4ccc(F)cc4)C3)ccc2nc1-c1ccccc1 (stereo not shown) [15S, 5-(7-{[3-(4-fluorophenyl)-pyrrolidin-1-yl]carbonyl}-3-phenylquinoxalin-2-yl)-pentanoic acid]
8 | 2.1 to 20 | CC(CCc1nc2cc(C(=O)N[C@H](C)c3ccc(Cl)cc3)ccc2nc1-c1ccc(Cl)cc1)CC(=O)O (stereo partly drawn) [17E, 3-(4-chlorophenyl)-7-[[[1(R)-(4-chlorophenyl)ethyl]amino]carbonyl]-beta-methyl-2-quinoxalinepentanoic acid]
9 | 2.1 to 20 | CC(CCCc1nc2cc(C(=O)NCc3ccc(C#N)cc3)ccc2nc1-c1ccc(F)cc1)C(=O)O (stereo not drawn) [compound 207, 7-[[[(4-cyanophenyl)methyl]amino]carbonyl]-3-(4-fluorophenyl)-alpha-methyl-2-quinoxalinepentanoic acid]
10 | 0.1 to 2 | CN(Cc1ccccc1)C(=O)c1ccc2nc(-c3ccccc3)c(CCCCC(=O)O)nc2c1 [15Ao, 5-{7-[benzyl(methyl)carbamoyl]-3-phenylquinoxalin-2-yl}pentanoic acid]
11 | 0.1 to 2 | O=C(O)CCCCc1nc2cc(C(=O)N3CCN(c4ccccc4)CC3)ccc2nc1-c1ccc(Cl)cc1 [16AG, 3-(4-chlorophenyl)-7-[(4-phenyl-1-piperazinyl)carbonyl]-2-quinoxalinepentanoic acid]
12 | 0.1 to 2 | CC(C)(NC(=O)c1ccc2nc(-c3ccccc3)c(CCCCC(=O)O)nc2c1)c1ccccc1 [15X, 5-{7-[(1-methyl-1-phenylethyl)carbamoyl]-3-phenylquinoxalin-2-yl}pentanoic acid]
13 | 2.1 to 20 | C[C@@H](NC(=O)c1ccc2nc(-c3ccccc3)c(CC[C@@H]3C[C@H]3C(=O)O)nc2c1)c1ccc(Cl)cc1 [compound 232, trans-2-[2-[7-[[[1(R)-(4-chlorophenyl)ethyl]amino]carbonyl]-3-phenyl-2-quinoxalinyl]ethyl] cyclopropanecarboxylic acid]
14 | 20.1 to 200 | CS(=O)(=O)c1ccc(-c2nc3ccc(C(=O)N4CCC(c5ccccc5)CC4)cc3nc2CCCCC(=O)O)cc1 [26X]
15 | 0.1 to 2 | O=C(O)CCCCc1nc2cc(C(=O)N[C@H]3CCc4cc(F)ccc43)ccc2nc1-c1ccc(F)cc1 [compound 224, 7-[[(5-fluoro-2,3-dihydro-1H-inden-1(5)-yl)amino]carbonyl]-3-(4-fluorophenyl)-2-quinoxalinepentanoic acid]
16 | 0.1 to 2 | O=C(O)CCCCc1nc2cc(C(=O)N3CC(c4cccc(F)c4)C3)ccc2nc1-c1ccccc1 [compound 251, 7-[[3-(3-fluorophenyl)-1-azetidinyl]carbonyl]-3-phenyl-2-quinoxalinepentanoic acid]
17 | 0.1 to 2 | C[C@H](NC(=O)c1ccc2nc(-c3ccc(Cl)cc3)c(CCCCC(=O)O)nc2c1)c1cccc(Cl)c1 [compound 181, 3-(4-chlorophenyl)-7-[[[1(S)-(3-chlorophenyl)ethyl]amino]carbonyl]-2-quinoxalinepentanoic acid]
18 | 0.1 to 2 | C[C@H](NC(=O)c1ccc2nc(-c3ccc(Cl)cc3)c(CCCCC(=O)O)nc2c1)c1ccccc1 [16AM, 3-(4-chlorophenyl)-7-[[(1-(S)-phenylethyl)amino]carbonyl]-2-quinoxalinepentanoic acid]
19 | 0.1 to 2 | COc1ccc(-c2nc3ccc(C(=O)N4CCC(c5ccccc5)CC4)cc3nc2CCCCC(=O)O)c(OC)c1 [26Z, 3-(2,4-dimethoxyphenyl)-7-[(4-phenyl-1-piperidinyl)carbonyl]-2-quinoxalinepentanoic acid]
20 | 20.1 to 200 | CCN1CCN(C(=O)c2ccc3nc(-c4ccccc4)c(CCCCC(=O)O)nc3c2)CC1 [15L, 5-{7-[(4-ethylpiperazin-1-yl)carbonyl]-3-phenylquinoxalin-2-yl}pentanoic acid]

same assay, conditions: [3H]PGD2 binding, values in text

Row | Ki [nM] | SMILES
21 | 716 | C[C@@H](NC(=O)c1ccc2nc(-c3ccccc3)c(CCCC(=O)O)nc2c1)c1ccc(F)cc1 [compound 36, (R)-4-(7-((1-(4-fluorophenyl)ethyl)carbamoyl)-3-phenylquinoxalin-2-yl)butanoic acid]
22 | 1 | CN(Cc1ccccc1)C(=O)c1ccc2nc(-c3ccccc3)c(CCCCC(=O)O)nc2c1 [15Ao, 5-{7-[benzyl(methyl)carbamoyl]-3-phenylquinoxalin-2-yl}pentanoic acid]
23 | 1.2 | O=C(O)CCCCc1nc2cc(C(=O)N3CCN(c4ccccc4)CC3)ccc2nc1-c1ccc(Cl)cc1 [16AG, 3-(4-chlorophenyl)-7-[(4-phenyl-1-piperazinyl)carbonyl]-2-quinoxalinepentanoic acid]
24 | 1 | O=C(O)CCCCc1nc2cc(C(=O)N3CC(c4cccc(F)c4)C3)ccc2nc1-c1ccccc1 [compound 251, 7-[[3-(3-fluorophenyl)-1-azetidinyl]carbonyl]-3-phenyl-2-quinoxalinepentanoic acid]

same assay, conditions: [3H]PGD2 competition, Table B

Row | Ki [nM] | SMILES
25 | 2.1 to 20 | O=C(O)CCCCc1nc2cc(C(=O)N3CC(F)(c4ccccc4)C3)ccc2nc1-c1ccc(Cl)cc1 [compound 328, 5-(3-(4-chlorophenyl)-7-(3-fluoro-3-phenylazetidine-1-carbonyl)quinoxalin-2-yl)pentanoic acid]
26 | 2.1 to 20 | O=C(O)CCCCc1nc2cc(C(=O)N[C@H]3CCCc4ncccc43)ccc2nc1-c1ccccc1 [compound 504, (S)-5-(3-phenyl-7-((5,6,7,8-tetrahydroquinolin-5-yl)carbamoyl)quinoxalin-2-yl)pentanoic acid]
27 | 2.1 to 20 | O=C(NCc1ccccc1)c1ccc2nc(-c3ccc(F)cc3)c(CCCC(F)(F)C(=O)O)nc2c1 [compound 443, 5-(7-(benzylcarbamoyl)-3-(4-fluorophenyl)quinoxalin-2-yl)-2,2-difluoropentanoic acid]
28 | 2.1 to 20 | O=C(O)CCCCc1nc2cc(C(=O)N3CCN(c4cnccn4)CC3)ccc2nc1-c1ccc(Cl)cc1 [compound 597, 5-(3-(4-chlorophenyl)-7-(4-(pyrazin-2-yl)piperazine-1-carbonyl)quinoxalin-2-yl)pentanoic acid]
29 | 2.1 to 20 | CC1(C)CCC(NC(=O)c2ccc3nc(-c4ccccc4)c(CCCCC(=O)O)nc3c2)c2ccccc21 (stereo not shown) [compound 296, 5-(7-((4,4-dimethyl-1,2,3,4-tetrahydronaphthalen-1-yl)carbamoyl)-3-phenylquinoxalin-2-yl)pentanoic acid]
30 | 2.1 to 20 | O=C(O)CCCCc1nc2cc(C(=O)N3CC(Oc4ccccn4)C3)ccc2nc1-c1ccc(Cl)cc1 [compound 329, 5-(3-(4-chlorophenyl)-7-(3-(pyridin-2-yloxy)azetidine-1-carbonyl)quinoxalin-2-yl)pentanoic acid]
31 | 0.1 to 2 | N#Cc1ccccc1N1CCN(C(=O)c2ccc3nc(-c4ccc(Cl)cc4)c(CCCCC(=O)O)nc3c2)CC1 [compound 631, 5-(3-(4-chlorophenyl)-7-(4-(2-cyanophenyl)piperazine-1-carbonyl)quinoxalin-2-yl)pentanoic acid]
32 | 0.1 to 2 | O=C(O)CCCCc1nc2cc(C(=O)N3CCC(c4ccc(Cl)cc4)CC3)ccc2nc1-c1ccc(Cl)cc1 [compound 415, 5-(3-(4-chlorophenyl)-7-(4-(4-chlorophenyl)piperidine-1-carbonyl)quinoxalin-2-yl)pentanoic acid]
33 | 0.1 to 2 | C[C@H](NC(=O)c1ccc2nc(-c3ccc(Cl)cc3)c(CCCCC(=O)O)nc2c1)c1cc(F)cc(F)c1 [compound 413, (S)-5-(3-(4-chlorophenyl)-7-((1-(3,5-difluorophenyl)ethyl)carbamoyl)quinoxalin-2-yl) pentanoic acid]
34 | 2.1 to 20 | O=C(O)CCCCc1nc2cc(C(=O)N3CCN(c4nccs4)CC3)ccc2nc1-c1ccc(Cl)cc1 [compound 601, 5-(3-(4-chlorophenyl)-7-(4-(thiazol-2-yl)piperazine-1-carbonyl)quinoxalin-2-yl)pentanoic acid]
35 | 2.1 to 20 | CN1C(=O)CC(NC(=O)c2ccc3nc(-c4ccc(Cl)cc4)c(CCCCC(=O)O)nc3c2)c2ccccc21 (stereo not shown) [compound 315, 5-(3-(4-chlorophenyl)-7-((1-methyl-2-oxo-1,2,3,4-tetrahydroquinolin-4-yl)carbamoyl)quinoxalin-2-yl)pentanoic acid]
36 | 2.1 to 20 | C[C@@H](CCc1nc2cc(C(=O)N3CC[C@@H](c4ccccc4)C3)ccc2nc1-c1ccccc1)CC(=O)O [compound 291, (S)-3-methyl-5-(3-phenyl-7-((S)-3-phenylpyrrolidine-1-carbonyl)quinoxalin-2-yl)pentanoic acid]
37 | 2.1 to 20 | Cc1cc(N2CCN(C(=O)c3ccc4nc(-c5ccc(Cl)cc5)c(CCCCC(=O)O)nc4c3)CC2)sn1 [compound 684, 5-(3-(4-chlorophenyl)-7-(4-(3-methylisothiazol-5-yl)piperazine-1-carbonyl)quinoxalin-2-yl)pentanoic acid]
